Seven molecules from the supplement of paper PMC11061612 can be followed below.

The test system of one assay is SK-MEL-24 (Melanoma). In words: Bliss excess, mean over the matrix (fraction); higher = more synergy. In a few lines:
(§1)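 Bliss excess equals the observed combination effect minus the expected value EA + EB − EA·EB, where EA and EB are the effects of each agent alone. Combination Emax is the second-highest inhibition within the matrix. Inhibition was scaled from CellTiter-Glo 2.0 luminescence, with 0 set by vehicle wells and 1 by blank wells, after 72 hours of two-drug dosing of cells plated in 1536-well plates.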

Assay [1] has as its system SUP-HD1 (Hodgkin's Lymphoma). Described as above. In short, it runs like this: as §1
For assay [2], the system named is HT-3 (Cervical Carcinoma). The assay is described as above. In a few lines: as §1
The subject of assay [3] is TOV-21G (Ovarian Carcinoma). The assay is described as above. In a few lines:
as §1

For assay [4], the system named is JJN-3 (Plasma Cell Myeloma). The assay is described as above. In a few lines:
as §1

Assay [5] concerns BC-1 (B-Cell Non-Hodgkin's Lymphoma). The description is as above. In short, it runs like this:
as §1

For assay [6], the system named is SW1463 (Colorectal Carcinoma). The assay is described as above. In short, it runs like this: as §1
Assay [7] deals with HT-1197 (Bladder Carcinoma). The description is as above. In short, it runs like this: as §1
The subject of assay [8] is NCI-H2009 (Lung Adenocarcinoma). The description is as above. In a few lines: as §1
The subject of assay [9] is SCC90 (Head and Neck Carcinoma). The description is as above. In a few lines:
as §1

Assay [10] deals with C2BBe1 (Colorectal Carcinoma). The assay is described as above. In a few lines: as §1
The subject of assay [11] is NCI-H1648 (Lung Adenocarcinoma). The assay is described as above. In short, it runs like this:
as §1

Assay [12] has as its system CAL-85-1 (Breast Carcinoma). In words: combination Emax (second highest fraction inhibited in the dose matrix, 72 h); higher = more inhibition; extreme values may be limits of the assay. In a few lines: as §1
Assay [13] concerns TOV-21G (Ovarian Carcinoma). Described as above. In a few lines:
as §1

The subject of assay [14] is KNS-62 (Squamous Cell Lung Carcinoma). The assay is described as above. In a few lines: as §1
Assay [15] has as its system NCI-H1944 (Lung Adenocarcinoma). The description is as above. In short, it runs like this:
as §1

For assay [16], the system named is NCI-H2023 (Non-Small Cell Lung Carcinoma). The assay is described as above. In short, it runs like this:
as §1

Assay [17] deals with MRK-nu-1 (Breast Carcinoma). The description is as above. In short, it runs like this:
as §1

The subject of assay [18] is L-363 (Plasma Cell Myeloma). The assay is described as above. In short, it runs like this:
as §1

The test system of assay [19] is NCI-H1648 (Lung Adenocarcinoma). Described as above. In short, it runs like this: as §1

Regarding `NC1(C(=O)N[C@@H](CCO)c2ccc(Cl)cc2)CCN(c2ncnc3[nH]ccc23)CC1` [Capivasertib] + C[C@@H]1COCCN1C2=NC(=NC(=C2)C3(CC3)[S@](=N)(=O)C)C4=C5C=CNC5=NC=C4 [AZD6738] (first compound max 10 µM, 7x7, partner max 10 µM), the Bliss excess in the assay with SK-MEL-24 (Melanoma) was -0.027; in assay [1] it was -0.0508; in [2] it was -0.0091; in assay [3], -0.0241; in assay [4] it was -0.0181; in assay [5], 0.0034. In addition, the Bliss excess in assay [6] was -0.101; in assay [7], -0.0491; in assay [8], -0.0483; in [9], -0.0541; in assay [10], -0.0722; in assay [11] it was -0.0878. Also, the “combination Emax” value stood at 0.47 in assay [12]; 0.851 in [13]; 0.738 in assay [14]; 0.974 in assay [15]; 0.655 in assay [16]; 0.605 in assay [17]. Moreover, the “combination Emax” value is 0.824 in [18] and 0.746 in assay [19].
In the case of `NC1(C(=O)N[C@@H](CCO)c2ccc(Cl)cc2)CCN(c2ncnc3[nH]ccc23)CC1` [Capivasertib] + Cn1cnc2c(F)c(Nc3ccc(Br)cc3Cl)c(C(=O)NOCCO)cc21 [Selumetinib] (first compound max 10 µM, 7x7, partner max 10 µM), the Bliss excess in the assay on SK-MEL-24 (Melanoma) was -0.0145; in [1], -0.0141; in assay [2], -0.0176; in [3] it was 0.0122; in assay [4], 0.0565; in assay [5] it was 0.0898. Further, the Bliss excess is -0.0255 in assay [6]; 0.0646 in assay [7]; -0.0191 in assay [8]; 0.0331 in assay [9]; -0.0036 in assay [10]; 0.0807 in assay [11]. Besides, the “combination Emax” value in assay [12] came to 0.411; in assay [13] it was 0.876; in [14], 0.914; in [15], 0.738; in [16] it was 0.369; in assay [17], 0.4. The “combination Emax” value in assay [18] came out at 0.605; in [19] it was 0.893.
As to `COc1cccc2c1C(=O)c1c(O)c3c(c(O)c1C2=O)C[C@@](O)(C(=O)CO)C[C@@H]3O[C@H]1C[C@H](N)[C@H](O)[C@H](C)O1` [Doxorubicin] + Cc1cc2ncnn2cc1Nc1ncc2c(n1)n(C1CCOCC1)c(=O)n2C [AZD7648] (first compound max 1 µM, 7x7, partner max 10 µM), the Bliss excess stood at 0.0399 in the assay with SK-MEL-24 (Melanoma); 0.0727 in assay [1]; 0.127 in assay [2]; 0.0091 in [3]; 0.0238 in assay [4]; 0.094 in assay [5]. Further, the Bliss excess in assay [6] is -0.0363; in assay [7] it was 0.0022; in assay [8], 0.0653; in [9], -0.0226; in assay [10] it was -0.0082; in assay [11] it was 0.0456. Besides, the “combination Emax” value in assay [12] was 0.634; in [13], 0.561; in [14] it was 0.484; in assay [15], 0.625; in assay [16] it was 0.825; in [17], 0.695. Further, the “combination Emax” value in assay [18] was 0.925; in assay [19] it was 0.598.
As for `CS(=O)(=O)CCNCc1ccc(-c2ccc3ncnc(Nc4ccc(OCc5cccc(F)c5)c(Cl)c4)c3c2)o1` [Lapatinib] + C[C@@H](Oc1cc(-c2cnn(C3CCNCC3)c2)cnc1N)c1c(Cl)ccc(F)c1Cl [Crizotinib] (first compound max 10 µM, 7x7, partner max 10 µM), the Bliss excess was -0.118 in the assay with SK-MEL-24 (Melanoma); -0.0579 in [1]; -0.0357 in [2]; -0.0289 in assay [3]; -0.0287 in assay [4]; -0.0557 in assay [5]. For the same molecule, the Bliss excess is 0.0138 in assay [6]; -0.0307 in assay [7]; -0.0506 in [8]; 0.0827 in [9]; -0.018 in assay [10]; 0.0036 in [11]. Also, the “combination Emax” value worked out at 0.944 in assay [12]; 0.953 in assay [13]; 0.856 in [14]; 0.958 in assay [15]; 0.687 in assay [16]; 0.477 in assay [17]. Moreover, the “combination Emax” value in assay [18] is 0.932; in assay [19], 0.971.
`CC(=O)c1c(C)c2cnc(Nc3ccc(N4CCNCC4)cn3)nc2n(C2CCCC2)c1=O` [Palbociclib] + CC1(C)CCC(CN2CCN(c3ccc(C(=O)NS(=O)(=O)c4ccc(NCC5CCOCC5)c([N+](=O)[O-])c4)c(Oc4cnc5[nH]ccc5c4)c3)CC2)=C(c2ccc(Cl)cc2)C1 [Venetoclax] (first compound max 10 µM, 7x7, partner max 1 µM): the Bliss excess is -0.0586 in the assay with SK-MEL-24 (Melanoma); -0.0641 in [1]; -0.0529 in assay [2]; -0.025 in [3]; -0.0357 in [4]; -0.0747 in assay [5]. The Bliss excess was -0.0899 in assay [6]; -0.042 in assay [7]; -0.0543 in assay [8]; -0.0435 in assay [9]; -0.0656 in assay [10]; -0.0254 in assay [11]. In addition, the “combination Emax” value worked out at 0.0543 in assay [12]; 0.519 in assay [13]; 0.268 in assay [14]; 0.523 in [15]; 0.348 in assay [16]; 0.37 in assay [17]. Also, the “combination Emax” value is 0.208 in assay [18] and 0.325 in assay [19].
In the case of `CC(=O)c1c(C)c2cnc(Nc3ccc(N4CCNCC4)cn3)nc2n(C2CCCC2)c1=O` [Palbociclib] + Cc1c2c(nn1C)CSCc1cc(n(C)n1)CSc1cc(c3ccccc3c1)OCCCc1c(C(=O)O)n(C)c3c-2c(Cl)ccc13 [AZD5991] (first compound max 10 µM, 7x7, partner max 1 µM), the Bliss excess with SK-MEL-24 (Melanoma) is -0.0196; in [1] it was -0.0704; in [2], -0.0751; in assay [3], -0.0439; in assay [4] it was -0.0434; in assay [5] it was -0.0028. Moreover, the Bliss excess is -0.0666 in assay [6]; -0.0289 in assay [7]; -0.0567 in assay [8]; -0.0224 in assay [9]; -0.0782 in assay [10]; -0.0084 in assay [11]. For the same molecule, the “combination Emax” value in assay [12] is 0.234; in assay [13] it was 0.488; in assay [14], 0.329; in assay [15] it was 0.633; in [16], 0.234; in assay [17] it was 0.993. The figures for the “combination Emax” value in assay [18] and in [19] were 0.994 and 0.406, respectively.
Take `CC(=O)c1c(C)c2cnc(Nc3ccc(N4CCNCC4)cn3)nc2n(C2CCCC2)c1=O` [Palbociclib] + Cn1cnc2c(F)c(Nc3ccc(Br)cc3Cl)c(C(=O)NOCCO)cc21 [Selumetinib] (first compound max 10 µM, 7x7, partner max 10 µM): the Bliss excess is -0.031 in the assay with SK-MEL-24 (Melanoma); -0.0414 in assay [1]; -0.0279 in [2]; -0.0259 in assay [3]; -0.0244 in assay [4]; 0.0124 in [5]. In addition, the Bliss excess was 0.0128 in assay [6]; -0.0257 in [7]; -0.0264 in assay [8]; -0.0058 in assay [9]; -0.0273 in assay [10]; 0.0823 in [11]. Moreover, the “combination Emax” value in assay [12] amounted to 0.387; in assay [13], 0.519; in assay [14], 0.552; in [15] it was 0.534; in assay [16], 0.209; in assay [17], 0.438. The “combination Emax” value in assay [18] came out at 0.301; in [19], 0.543.
